For three molecules, GI50, IC50 and MTD results are on record in patent US20030087906A1, “NITROGEN SUBSTITUTED BIARYL PURINE DERIVATIVES AS POTENT ANTIPROLIFERATIVE AGENTS” (priority 2001, published 2003).

In general, GI50 refers to the concentration that inhibits growth by half. Read a high GI50 as lower sensitivity of the cells. Usually IC50 stands for the concentration at which inhibition is half-maximal. A higher IC50 goes with weaker potency.

One series has as its system DU-145. The series can be described thus: NCI 60-cell line growth inhibition assay. In kind it is cell-based. The conditions noted are these: Homo sapiens; DU-145 (Prostate).
A further series deals with SF-295. Nature of the series: NCI 60-cell line growth inhibition assay. The conditions noted are these: Homo sapiens; SF-295 (CNS). In kind it is cell-based.
A further series has as its system M14. Nature of the series: NCI 60-cell line growth inhibition assay. It is filed as cell-based. Particulars: Homo sapiens; M14 (Melanoma).
Another series relates to LOX IMVI. The series can be described thus: NCI 60-cell line growth inhibition assay. It is filed as cell-based. Particulars: Homo sapiens; LOX IMVI (Melanoma).
The next series relates to IGROV1. The series can be described thus: NCI 60-cell line growth inhibition assay. It is filed as cell-based. Particulars: Homo sapiens, IGROV-1; IGROV1 (Ovarian).
In a further series the test system is MCF7. Nature of the series: NCI 60-cell line growth inhibition assay. It is filed as cell-based. Particulars: Homo sapiens; MCF7 (Breast).
A further series deals with CyclinA/cdk2 (Homo sapiens, UniProt P24941). The series can be described thus: CyclinA/cdk2 protein kinase assay (histone H1 phosphorylation). Particulars: IC50 CyclinA/cdk2, complex immunopurified from HeLa cells; 15 μM ATP; replicate experiments.
The test system of the next series is OVCAR-8. Nature of the series: NCI 60-cell line growth inhibition assay. It is filed as cell-based. The conditions noted are these: Homo sapiens; OVCAR-8 (Ovarian).
A further series deals with NCI-H322M. Nature of the series: NCI 60-cell line growth inhibition assay. In kind it is cell-based. The conditions noted are these: Homo sapiens; NCI-H322M (Non-Small Cell Lung).
Another series deals with T1, CyclinB/cdk1 (Homo sapiens, UniProt P06493).
T1 construct: Monoclonal antibody against cyclinB (GNS1) is added to the supernatant; endogenous in cells
The series can be described thus: CyclinB/cdk1 protein kinase assay (histone H1 phosphorylation). In kind it is biochemical. Particulars: complex immunopurified from HeLa cells; 15 μM ATP; replicate experiments.

The test system of the next series is PC-3. Nature of the series: NCI 60-cell line growth inhibition assay. Particulars: Homo sapiens; PC-3 (Prostate). In kind it is cell-based.
A further series has as its system UACC-62. Nature of the series: NCI 60-cell line growth inhibition assay. Particulars: Homo sapiens; UACC-62 (Melanoma). It is filed as cell-based.
A further series relates to SW-620. The series can be described thus: NCI 60-cell line growth inhibition assay. It is filed as cell-based. Particulars: Homo sapiens; SW-620 (Colon).
Another series concerns HOP-92. Nature of the series: NCI 60-cell line growth inhibition assay. In kind it is cell-based. The conditions noted are these: Homo sapiens; HOP-92 (Non-Small Cell Lung).
A further series relates to UO-31. Nature of the series: NCI 60-cell line growth inhibition assay. It is filed as cell-based. The conditions noted are these: Homo sapiens; UO-31 (Renal).
Another series has as its system ACHN. The series can be described thus: NCI 60-cell line growth inhibition assay. Particulars: Homo sapiens; ACHN (Renal). In kind it is cell-based.
The next series concerns U251. Nature of the series: NCI 60-cell line growth inhibition assay. It is filed as cell-based. The conditions noted are these: Homo sapiens, U-251; U251 (CNS).
A further series has as its system BT-549. The series can be described thus: NCI 60-cell line growth inhibition assay. It is filed as cell-based. Particulars: Homo sapiens; BT-549 (Breast).
The next series relates to MOLT-4. The series can be described thus: NCI 60-cell line growth inhibition assay. The conditions noted are these: Homo sapiens; MOLT-4 (Leukemia). It is filed as cell-based.
The subject of a further series is HCT-15. The series can be described thus: NCI 60-cell line growth inhibition assay. In kind it is cell-based. The conditions noted are these: Homo sapiens; HCT-15 (Colon).
The subject of a further series is MDA-MB-435. Nature of the series: NCI 60-cell line growth inhibition assay. Particulars: Homo sapiens; MDA-MB-435 (Breast). It is filed as cell-based.
Another series relates to K-562. The series can be described thus: NCI 60-cell line growth inhibition assay. In kind it is cell-based. The conditions noted are these: Homo sapiens, K562; K-562 (Leukemia).
Series [1] in a line: MTD (NCI in vivo evaluation, Table 8). The conditions noted are these: mouse.
The subject of a further series is EKVX. The series can be described thus: NCI 60-cell line growth inhibition assay. The conditions noted are these: Homo sapiens; EKVX (Non-Small Cell Lung). It is filed as cell-based.
For series [2], the system named is 60-human transformed cell lines. Nature of the series: NCI 60-cell line growth inhibition assay (whole panel). In kind it is cell-based. Particulars: range over 60 cell lines.
The subject of a further series is HeLa S-3 cells. Nature of the series: Inhibition of cell growth of HeLa cells (SRB). In kind it is cell-based, human. Particulars: Homo sapiens, HeLa S3, 48 h, 2 days of treatment, replicate experiments.

Molecules are shown by their SMILES. Where “and” joins values, the source holds several entries; their conditions need not be identical. Equal values may be shown once.

T1 sequence (P06493 whole entry): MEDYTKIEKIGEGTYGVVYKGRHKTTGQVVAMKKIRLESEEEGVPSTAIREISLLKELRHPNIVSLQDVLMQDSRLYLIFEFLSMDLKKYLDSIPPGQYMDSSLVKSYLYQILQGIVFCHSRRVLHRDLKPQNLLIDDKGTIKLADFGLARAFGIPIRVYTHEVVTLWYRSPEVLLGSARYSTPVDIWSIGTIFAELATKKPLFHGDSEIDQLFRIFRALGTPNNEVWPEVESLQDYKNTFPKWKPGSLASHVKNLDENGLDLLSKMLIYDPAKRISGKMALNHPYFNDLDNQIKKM
T1 sequence (P14635 whole entry partner): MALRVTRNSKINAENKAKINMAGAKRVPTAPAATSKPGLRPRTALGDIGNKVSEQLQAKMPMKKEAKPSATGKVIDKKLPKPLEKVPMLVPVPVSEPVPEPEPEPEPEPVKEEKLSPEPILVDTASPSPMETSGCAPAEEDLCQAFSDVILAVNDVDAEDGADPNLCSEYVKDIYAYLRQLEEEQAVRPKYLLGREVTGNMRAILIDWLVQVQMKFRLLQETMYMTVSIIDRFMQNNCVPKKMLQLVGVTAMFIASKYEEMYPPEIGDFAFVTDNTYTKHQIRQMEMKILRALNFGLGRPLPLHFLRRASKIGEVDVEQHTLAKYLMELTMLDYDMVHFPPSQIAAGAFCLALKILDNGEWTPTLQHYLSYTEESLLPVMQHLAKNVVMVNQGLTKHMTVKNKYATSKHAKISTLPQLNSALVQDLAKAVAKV

Turning to `CC(=O)N[C@H]1CC[C@H](Nc2nc(NCc3ccc(-c4ccccn4)cc3)c3ncn(C(C)C)c3n2)CC1` [Compound 79], the GI50 in the series on DU-145, with SF-295, with M14, in the series on LOX IMVI, in the series with IGROV1 and with MCF7 was below 10 nM in each case. Besides, the GI50 in the series with OVCAR-8, in the series on NCI-H322M, with PC-3, with UACC-62, in the series with SW-620 and in the series with HOP-92 was below 10 nM each time. In addition, the GI50 in the series with UO-31, in the series on ACHN, in the series with U251, with BT-549, in the series with MOLT-4 and in the series with HCT-15 was below 10 nM each time. Further, the GI50 in the series on MDA-MB-435, in the series with K-562 and in the series with EKVX was below 10 nM each time. The IC50 at CyclinA/cdk2 was 500 nM and 1000 nM; at CyclinB/cdk1, 3000 nM. In addition, the MTD in series [1] turned out to be 6.3 mg/kg.
As to `CC(C)n1cnc2c(NCc3ccc(-c4ccsc4)cc3)nc(N[C@H]3CC[C@H](N)CC3)nc21` [Compound 12], the GI50 is 17 nM in the series with DU-145; 18 nM in the series with SF-295; below 5 nM in the series with M14; below 5 nM in the series on LOX IMVI; 13 nM in the series with IGROV1; below 5 nM in the series on MCF7. The GI50 is 7.6 nM in the series with OVCAR-8; below 5 nM in the series with NCI-H322M; below 5 nM with PC-3; 27 nM in the series with UACC-62; below 5 nM in the series on SW-620; 11 nM with HOP-92. For the same molecule, the GI50 in the series with UO-31 is 63 nM; in the series with ACHN it was 39 nM; with U251, 7.8 nM; in the series with BT-549 it was 41 nM; with MOLT-4 it was below 5 nM; in the series on HCT-15, 170 nM. Further, the results for the GI50 in the series with MDA-MB-435, with K-562 and in the series on EKVX were below 5 nM, below 5 nM and 23 nM, respectively. In addition, the IC50 against CyclinA/cdk2 is 2000 nM and 700 nM and 900 nM and 200 nM; on CyclinB/cdk1, 3000 nM. Also, in series [1], the MTD came out at 3.1 mg/kg.
Consider `Cn1cnc2c(NCc3ccccc3)nc(NCCO)nc21` [Olomoucine, reference compound], for which the GI50 in series [2] was 20000 to 100000 nM; in the series on DU-145, 40000 nM; in the series on SF-295 it was 79000 nM; with M14, 100000 nM; in the series on LOX IMVI, 32000 nM; in the series with IGROV1, 40000 nM. Besides, the GI50 with MCF7 turned out to be 50000 nM; with OVCAR-8, 63000 nM; in the series on NCI-H322M, 63000 nM; in the series on PC-3, 100000 nM; in the series on UACC-62, 32000 nM; in the series on SW-620 it was 40000 nM. For the same molecule, the GI50 in the series on HOP-92 came to 50000 nM; with UO-31, 32000 nM; with ACHN, 25000 nM; in the series with U251 it was 50000 nM; with BT-549, 79000 nM; with MOLT-4, 63000 nM. The GI50 was 40000 nM in the series on HCT-15; 63000 nM in the series with MDA-MB-435; 75000 nM in the series on HeLa S-3 cells; 100000 nM in the series on K-562; 100000 nM in the series on EKVX.
